# Test results published in ChEMBL document CHEMBL1151536, “Biaryl substituted alkylboronate esters as thrombin inhibitors” (Bioorg Med Chem Lett, 1997).
# Key:
# Prothrombin = Prothrombin (Homo sapiens, UniProt P00734); test: Inhibition of thrombin; set-up: species or system Oryctolagus cuniculus
# Serine protease 1 = Serine protease 1 (Homo sapiens, UniProt P07477); test: Inhibition of trypsin
# [1] = In vitro inhibitory concentration expressed as thrombin time of the compound; assay type: functional
# Chain of Serine protease 1 (P07477 whole entry): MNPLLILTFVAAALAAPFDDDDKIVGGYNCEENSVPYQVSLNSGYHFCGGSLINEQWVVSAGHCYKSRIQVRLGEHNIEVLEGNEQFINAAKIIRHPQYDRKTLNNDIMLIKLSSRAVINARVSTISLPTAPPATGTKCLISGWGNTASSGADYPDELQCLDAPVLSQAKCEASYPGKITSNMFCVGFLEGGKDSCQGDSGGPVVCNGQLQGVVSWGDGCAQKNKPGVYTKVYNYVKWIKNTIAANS
SMILES,Ki (Prothrombin) [nM],Ki (Serine protease 1) [nM],IC50 [1] [nM]
CC1(C)C2CC1[C@]1(C)OB([C@H](CCCN=C(N)N)NC(=O)c3ccc(-c4ccccc4)cc3F)O[C@@H]1C2 (some centres not stated),1.2,–,–
CC1(C)C2CC1[C@]1(C)OB([C@H](CCCNC(=N)N)NC(=O)c3ccc(-c4ccncc4)cc3)O[C@@H]1C2 (some centres not stated),19,–,–
Cc1nc(-c2ccccc2)ncc1C(=O)N[C@@H](CCCCN)B1O[C@@H]2CC3CC(C3(C)C)[C@]2(C)O1 (some centres not stated),410,–,–
CC(C)(C)OC(=O)Nc1cccc(-c2cccc(C(=O)N[C@@H](CCCN=C(N)N)B3O[C@@H]4CC5CC(C5(C)C)[C@]4(C)O3)c2)c1 (some centres not stated),8.3,35,–
CC(C)(C)OC(=O)Nc1cccc(-c2ccc(C(=O)N[C@@H](CCCNC(=N)N)B3O[C@@H]4CC5CC(C5(C)C)[C@]4(C)O3)s2)c1 (some centres not stated),42,13,–
Cc1cc(-c2ccccc2S(N)(=O)=O)ccc1C(=O)N[C@@H](CCCN=C(N)N)B1O[C@@H]2CC3CC(C3(C)C)[C@]2(C)O1 (some centres not stated),0.92,0.11,110
Cc1nc(-c2ccccc2)ncc1C(=O)N[C@@H](CCCN=C(N)N)B1O[C@@H]2CC3CC(C3(C)C)[C@]2(C)O1 (some centres not stated),10,–,–
Cc1nc(-c2ccccc2)ccc1C(=O)N[C@@H](CCCCN)B1O[C@@H]2CC3CC(C3(C)C)[C@]2(C)O1 (some centres not stated),580,–,–
CC1(C)C2CC1[C@]1(C)OB([C@H](CCCN=C(N)N)NC(=O)c3ccc(-c4ccccc4)cc3[N+](=O)[O-])O[C@@H]1C2 (some centres not stated),4.7,–,–
Cc1cc(-c2ccccc2C(F)(F)F)ccc1C(=O)N[C@@H](CCCN=C(N)N)B1O[C@@H]2CC3CC(C3(C)C)[C@]2(C)O1 (some centres not stated),0.46,3.1,–
CC1(C)C2CC1[C@]1(C)OB([C@H](CCCNC(=N)N)NC(=O)c3cccc(-c4ccccc4)c3)O[C@@H]1C2 (some centres not stated),110,7.4,–
Cc1cc(-c2ccccc2S(=O)(=O)NC(C)(C)C)ccc1C(=O)N[C@@H](CCCN=C(N)N)B1O[C@@H]2CC3CC(C3(C)C)[C@]2(C)O1 (some centres not stated),0.21,0.7,140
CC(C)(C)OC(=O)Nc1cccc(-c2ccc(C(=O)N[C@@H](CCCN=C(N)N)B3O[C@@H]4CC5CC(C5(C)C)[C@]4(C)O3)o2)c1 (some centres not stated),30,25,–
CC1(C)C2CC1[C@]1(C)OB([C@H](CCCNC(=N)N)NC(=O)c3cccc(-c4cccc(NS(C)(=O)=O)c4)c3)O[C@@H]1C2 (some centres not stated),3.5,3.8,–
CC1(C)C2CC1[C@]1(C)OB([C@H](CCCN=C(N)N)NC(=O)c3ccc(-c4ccccc4)cc3)O[C@@H]1C2 (some centres not stated),0.94,33,–
Cc1cc(-c2ccccc2)ccc1C(=O)N[C@@H](CCCN=C(N)N)B1O[C@@H]2CC3CC(C3(C)C)[C@]2(C)O1 (some centres not stated),0.42,4.2,600
CCN(CC)S(=O)(=O)c1ccccc1-c1ccc(C(=O)N[C@@H](CCCNC(=N)N)B2O[C@@H]3CC4CC(C4(C)C)[C@]3(C)O2)c(C)c1 (some centres not stated),0.36,0.62,–
CC1(C)C2CC1[C@]1(C)OB([C@H](CCCN=C(N)N)NC(=O)c3ccc(-c4ccccc4)c([N+](=O)[O-])c3)O[C@@H]1C2 (some centres not stated),4.9,4.8,–
CC1(C)C2CC1[C@]1(C)OB([C@H](CCCN=C(N)N)NC(=O)c3ccc(-c4ccccc4)cc3N)O[C@@H]1C2 (some centres not stated),1.3,5.3,–
N=C(N)NCCC[C@H](NC(=O)c1ccc(-c2ccccc2)cc1)B(O)O,1.7,–,–
CC(=O)N[C@H](Cc1ccccc1)C(=O)N1CCC[C@H]1C(=O)N[C@@H](CCCN=C(N)N)B(O)O,–,–,55
CC1(C)C2CC1[C@]1(C)OB([C@H](CCCN=C(N)N)NC(=O)c3ccc(-c4ccccc4)c(N)c3)O[C@@H]1C2 (some centres not stated),5.5,4.7,–
COC(=O)NS(=O)(=O)c1ccccc1-c1ccc(C(=O)N[C@@H](CCCN=C(N)N)B2O[C@@H]3CC4CC(C4(C)C)[C@]3(C)O2)c(C)c1 (some centres not stated),1.1,0.64,225
CC1(C)OB([C@H](CCCNC(=N)N)NC(=O)c2ccccc2)OC1(C)C,512,70,–
Cc1cc(-c2ccccc2)ccc1C(=O)N[C@@H](CCCCN)B1O[C@@H]2CC3CC(C3(C)C)[C@]2(C)O1 (some centres not stated),26,–,–
CC1(C)C2CC1[C@]1(C)OB([C@H](CCCNC(=N)N)NC(=O)c3ccc(-c4ccccc4)o3)O[C@@H]1C2 (some centres not stated),137,–,–
CC1(C)C2CC1[C@]1(C)OB([C@H](CCCN=C(N)N)NC(=O)Cc3ccc(-c4ccccc4)cc3)O[C@@H]1C2 (some centres not stated),6.9,–,–
